Data: patent US12655116B2, “Substituted isophthalic acid diamides” (Bayer Aktiengesellschaft, priority 2020, dated 2026)

Legend:
[1] = system: AVEFA; assay: Pre-emergence herbicidal action against AVEFA; format: in vivo, Avena fatua; conditions: Avena fatua, 504 h; 80 g/ha, pre-emergence
In short: (§1)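 Herbicidal effect was assessed 3 weeks after treatment by visual comparison with untreated controls, 100% denoting dead plants. Aqueous WP or EC preparations had been applied at 600 to 800 l/ha with 0.2% wetting agent to the soil covering freshly sown seeds.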

[2] = system: VIOTR; assay: Pre-emergence herbicidal action against VIOTR; format: in vivo, Viola tricolor
In short: as §1

[3] = system: ABUTH; assay: Post-emergence herbicidal action against ABUTH; format: in vivo, Abutilon theophrasti; conditions: visual assessment about 3 weeks after treatment vs untreated controls
In short: (§2)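 Post-emergence greenhouse test; one-leaf stage, 2–3 wk post-sowing, sandy loam. Foliar spray of WP/EC in water, 600–800 l/ha, +0.2% wetting agent. Visual % action at ~3 wk vs untreated (100% = plants dead).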

[4] = system: VERPE; assay: Post-emergence herbicidal action against VERPE; format: in vivo, Veronica persica
In short: as §2

[5] = system: ECHCG; assay: Pre-emergence herbicidal action against ECHCG; format: in vivo, Echinochloa crus-galli
In short: as §1

[6] = system: PHBPU; assay: Post-emergence herbicidal action against PHBPU; format: in vivo, Pharbitis purpurea; conditions: dosage 20 g/ha
In short: as §2

[7] = system: MATIN; assay: Pre-emergence herbicidal action against MATIN; format: in vivo, Matricaria inodora
In short: as §1

[8] = system: DIGSA; assay: Pre-emergence herbicidal action against DIGSA; format: in vivo, Digitaria sanguinalis
In short: as §1

[9] = system: MATIN; assay: Post-emergence herbicidal action against MATIN; format: in vivo, Matricaria inodora; conditions: Tripleurospermum inodorum, 504 h
In short: as §2

[10] = system: VIOTR; assay: Post-emergence herbicidal action against VIOTR; format: in vivo, Viola tricolor; conditions: Viola tricolor, 504 h
In short: as §2

[11] = system: PHBPU; assay: Pre-emergence herbicidal action against PHBPU; format: in vivo, Pharbitis purpurea
In short: as §1

[12] = system: ALOMY; assay: Post-emergence herbicidal action against ALOMY; format: in vivo, Alopecurus myosuroides; conditions: dosage 20 g/ha, visual assessment about 3 weeks after treatment vs untreated controls
In short: as §2

[13] = system: DIGSA; assay: Post-emergence herbicidal action against DIGSA; format: in vivo, Digitaria sanguinalis
In short: as §2

[14] = system: ABUTH; assay: Pre-emergence herbicidal action against ABUTH; format: in vivo, Abutilon theophrasti
In short: as §1

[15] = system: VERPE; assay: Pre-emergence herbicidal action against VERPE; format: in vivo, Veronica persica; conditions: Veronica persica, 504 h, dosage 80 g/ha
In short: as §1

[16] = system: SETVI; assay: Post-emergence herbicidal action against SETVI; format: in vivo, Setaria viridis
In short: as §2

[17] = system: ALOMY; assay: Pre-emergence herbicidal action against ALOMY; format: in vivo, Alopecurus myosuroides; conditions: 80 g/ha, pre-emergence, scored visually after 3 weeks vs untreated controls (100% = plants have died, 0% = like control plants)
In short: as §1

[18] = system: AMARE; assay: Pre-emergence herbicidal action against AMARE; format: in vivo, Amaranthus retroflexus
In short: as §1

[19] = system: ECHCG; assay: Post-emergence herbicidal action against ECHCG; format: in vivo, Echinochloa crus-galli
In short: as §2

[20] = system: AMARE; assay: Post-emergence herbicidal action against AMARE; format: in vivo, Amaranthus retroflexus; conditions: 20 g/ha, visual assessment about 3 weeks after treatment, 100% = plants have died, 0% = like control plants
In short: as §2

[21] = system: SETVI; assay: Pre-emergence herbicidal action against SETVI; format: in vivo, Setaria viridis
In short: as §1

[22] = Setaria viridis, 504 h, dosage 20 g/ha
[23] = 80 g/ha, scored visually after 3 weeks vs untreated controls (100% = plants have died, 0% = like control plants)

SMILES: CCNC(=O)c1c(C(F)(F)F)ccc(C(=O)Nc2nnnn2C)c1OC [Example 1-57]
- pest or weed control at 80 g/ha [1]: 90%
- pest or weed control at 20 g/ha ([2]; Viola tricolor, 504 h, dosage 20 g/ha): 100%
- pest or weed control at 80 g/ha ([2]; Viola tricolor, 504 h, dosage 80 g/ha): 100%
- pest or weed control at 5 g/ha ([3]; Abutilon theophrasti, 504 h, dosage 5 g/ha): 90%
- pest or weed control at 20 g/ha ([3]; Abutilon theophrasti, 504 h, dosage 20 g/ha): 90%
- pest or weed control at 5 g/ha ([4]; Veronica persica, 504 h, 5 g/ha): 80%
- pest or weed control at 20 g/ha ([4]; Veronica persica, 504 h, 20 g/ha): 90%
- pest or weed control at 20 g/ha ([5]; Echinochloa crus-galli, 504 h, 20 g/ha): 90%
- pest or weed control at 80 g/ha ([5]; Echinochloa crus-galli, 504 h, 80 g/ha): 90%
- pest or weed control at 20 g/ha ([6]; Ipomoea purpurea, 504 h): 90%
- pest or weed control at 20 g/ha ([7]; Tripleurospermum inodorum, 504 h, dosage 20 g/ha): 90%
- pest or weed control at 80 g/ha ([7]; Tripleurospermum inodorum, 504 h, dosage 80 g/ha): 100%
- pest or weed control at 20 g/ha ([8]; Digitaria sanguinalis, 504 h, dosage 20 g/ha): 100%
- pest or weed control at 80 g/ha ([8]; Digitaria sanguinalis, 504 h, dosage 80 g/ha): 100%
- pest or weed control at 5 g/ha ([9]; dosage 5 g/ha): 80%
- pest or weed control at 20 g/ha ([9]; dosage 20 g/ha): 90%
- pest or weed control at 5 g/ha ([10]; 5 g/ha): 100%
- pest or weed control at 20 g/ha ([10]; 20 g/ha): 100%
- pest or weed control at 20 g/ha ([11]; Ipomoea purpurea, 504 h, dosage 20 g/ha): 80%
- pest or weed control at 80 g/ha ([11]; Ipomoea purpurea, 504 h, dosage 80 g/ha): 80%
- pest or weed control at 20 g/ha ([12]; Alopecurus myosuroides, 504 h): 80%
- pest or weed control at 5 g/ha ([13]; Digitaria sanguinalis, 504 h, 5 g/ha): 100%
- pest or weed control at 20 g/ha ([13]; Digitaria sanguinalis, 504 h, 20 g/ha): 100%
- pest or weed control at 80 g/ha ([14]; Abutilon theophrasti, 504 h, 80 g/ha, scored visually after 3 weeks vs untreated controls (100% = plants have died, 0% = like control plants)): 100%
- pest or weed control at 20 g/ha ([14]; Abutilon theophrasti, 504 h, dosage 20 g/ha, scored visually after 3 weeks vs untreated controls, 100% = plants have died, 0% = like control plants, read-out: Pre-emergence action against ABUTH (herbicidal activity in percent)): 100%
- pest or weed control at 80 g/ha [15]: 80%
- pest or weed control at 5 g/ha ([16]; Setaria viridis, 504 h, dosage 5 g/ha): 100%
- pest or weed control at 20 g/ha [16, 22]: 100%
- pest or weed control at 80 g/ha ([17]; Alopecurus myosuroides, 504 h): 80%
- pest or weed control at 20 g/ha ([18]; Amaranthus retroflexus, 504 h, 20 g/ha, scored visually after 3 weeks vs untreated controls, 100% = plants have died, 0% = like control plants): 100%
- pest or weed control at 80 g/ha ([18]; Amaranthus retroflexus, 504 h, 80 g/ha, scored visually after 3 weeks vs untreated controls, 100% = plants have died, 0% = like control plants): 100%
- pest or weed control at 5 g/ha ([19]; Echinochloa crus-galli, 504 h, dosage 5 g/ha): 80%
- pest or weed control at 20 g/ha ([19]; Echinochloa crus-galli, 504 h, dosage 20 g/ha): 100%
- pest or weed control at 20 g/ha ([20]; Amaranthus retroflexus, 504 h): 100%
- pest or weed control at 20 g/ha [21, 22]: 90%
- pest or weed control at 80 g/ha ([21]; Setaria viridis, 504 h, dosage 80 g/ha): 100%

SMILES: COCCNC(=O)c1c(C(F)F)ccc(C(=O)Nc2nnnn2C)c1Cl [Example 1-156]
- Pre-emergence action against VIOTR in % ([2]; dosage 80 g/ha): 100%
- Post-emergence action against ABUTH in % ([3]; dosage 5 g/ha): 90%
- Post-emergence action against ABUTH in % ([3]; dosage 20 g/ha): 90%
- Post-emergence action against VERPE in % ([4]; 20 g/ha): 80%
- Pre-emergence action against ECHCG in % ([5]; 80 g/ha): 100%
- Post-emergence action against PHBPU in % [6]: 90%
- Pre-emergence action against MATIN in % ([7]; dosage 20 g/ha): 90%
- Pre-emergence action against MATIN in % ([7]; dosage 80 g/ha): 100%
- Pre-emergence action against DIGSA in % ([8]; dosage 20 g/ha): 100%
- Pre-emergence action against DIGSA in % ([8]; dosage 80 g/ha): 100%
- Pre-emergence action against PHBPU in % ([11]; dosage 80 g/ha): 80%
- Post-emergence action against ALOMY in % [12]: 80%
- Post-emergence action against DIGSA ([13]; 20 g/ha): 90%
- Pre-emergence action against ABUTH (herbicidal activity) [14, 23]: 100%
- Post-emergence action against SETVI in % ([16]; dosage 20 g/ha): 80%
- Pre-emergence action against ALOMY (herbicidal activity) [17]: 90%
- Pre-emergence action against AMARE in % ([18]; 20 g/ha, scored visually after 3 weeks vs untreated controls, 100% = plants have died, 0% = like control plants): 100%
- Pre-emergence action against AMARE in % [18, 23]: 100%
- Post-emergence action against ECHCG in % ([19]; dosage 5 g/ha): 80%
- Post-emergence action against ECHCG in % ([19]; dosage 20 g/ha): 90%
- Post-emergence action at 20 g/ha against AMARE in % [20]: 90%
- Pre-emergence action against SETVI in % ([21]; dosage 80 g/ha): 100%
